The source of these data is article PMC5762728 (Scientific Reports, 2018).

Series [1] has as its target T1, C-domain of bovine ACE (C-ACE) (Bos taurus, UniProt P12820).
T1 sequence (P12820 643-1222 limits assumed): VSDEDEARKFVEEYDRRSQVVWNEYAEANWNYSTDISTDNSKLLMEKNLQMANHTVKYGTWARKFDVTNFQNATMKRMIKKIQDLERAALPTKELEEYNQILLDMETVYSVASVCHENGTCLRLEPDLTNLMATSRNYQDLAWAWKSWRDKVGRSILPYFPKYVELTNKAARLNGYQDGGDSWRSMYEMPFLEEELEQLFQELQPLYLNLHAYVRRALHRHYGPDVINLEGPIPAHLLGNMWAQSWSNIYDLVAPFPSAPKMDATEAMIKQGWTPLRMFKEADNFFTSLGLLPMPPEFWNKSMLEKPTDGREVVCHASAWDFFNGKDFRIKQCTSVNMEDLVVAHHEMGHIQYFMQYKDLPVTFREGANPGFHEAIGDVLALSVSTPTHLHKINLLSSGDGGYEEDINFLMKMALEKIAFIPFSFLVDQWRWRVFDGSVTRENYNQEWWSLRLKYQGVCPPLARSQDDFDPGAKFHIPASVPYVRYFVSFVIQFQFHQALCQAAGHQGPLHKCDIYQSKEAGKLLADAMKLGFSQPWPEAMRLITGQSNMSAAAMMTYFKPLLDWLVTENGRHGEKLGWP
Description: Inhibition of C-ACE hydrolysis of Aβ peptides by lisinopril. In kind it is biochemical. Particulars: lisinopril 10 μM; MALDI-TOF MS.

The subject of series [2] is N-ACE (N-domain of bovine ACE). As to conditions: 37 °C, up to 60 min.
A further series has as its system C-domain of ACE (C-ACE). In words: C-ACE with lisinopril, ratAβ substrate. As to conditions: bovine, 37 °C, up to 60 min.
Series [3] concerns N-domain of ACE (N-ACE). Description: N-ACE with lisinopril, ratAβ substrate. Particulars: bovine, 37 °C, up to 60 min.
Series [4] concerns the target T2, N-domain of bovine ACE (N-ACE) (Bos taurus, UniProt P12820).
T2 sequence (P12820 40-624 limits assumed): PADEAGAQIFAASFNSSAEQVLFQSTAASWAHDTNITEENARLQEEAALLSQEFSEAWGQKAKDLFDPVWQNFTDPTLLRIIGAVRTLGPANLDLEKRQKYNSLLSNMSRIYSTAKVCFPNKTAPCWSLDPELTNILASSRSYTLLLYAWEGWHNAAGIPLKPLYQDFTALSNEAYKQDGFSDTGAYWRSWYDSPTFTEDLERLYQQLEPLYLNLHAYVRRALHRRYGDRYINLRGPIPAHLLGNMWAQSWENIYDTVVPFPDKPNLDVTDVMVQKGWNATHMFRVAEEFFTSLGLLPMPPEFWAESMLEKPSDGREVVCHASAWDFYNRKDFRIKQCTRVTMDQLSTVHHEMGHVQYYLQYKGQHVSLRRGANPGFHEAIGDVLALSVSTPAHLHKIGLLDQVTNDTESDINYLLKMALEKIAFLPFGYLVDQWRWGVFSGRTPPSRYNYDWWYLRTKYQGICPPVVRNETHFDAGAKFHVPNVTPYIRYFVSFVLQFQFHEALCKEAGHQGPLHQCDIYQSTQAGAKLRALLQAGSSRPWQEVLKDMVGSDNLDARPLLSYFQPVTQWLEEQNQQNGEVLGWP
Description: Hydrolysis of Aβ metal-binding-domain peptides by N-ACE, products identified/quantified by MALDI-TOF MS.

Series [5] has as its target T1, C-domain of bovine ACE (C-ACE). In words: Hydrolysis of Aβ metal-binding-domain peptides by C-ACE, products identified/quantified by MALDI-TOF MS. As to conditions: same experimental conditions as N-ACE, 37 °C.
The test system of series [6] is N-domain of ACE. As to conditions: cited from earlier work.
In series [7] the test system is N-domain of ACE. As to conditions: cited from earlier work. The source holds these as a separate data set.
Series [8] deals with N-domain of ACE (N-ACE). Description: N-ACE with lisinopril. Particulars: bovine, 37 °C.

For `NCCCC[C@H](N[C@@H](CCc1ccccc1)C(=O)O)C(=O)N1CCC[C@H]1C(=O)O` [lisinopril], the “Effect of lisinopril on C-ACE hydrolysis of Aβ(1-16)” value in series [1] is listed as “fully prevented the formation of these products of hydrolysis”.

As to Ac-DAEFGHDSGFEVRHQK-NH2, in [2], the cleaved bond result is “Arg13-His14, 10 min”. Moreover, the not cleaved entry in series [2] is on record as “absence of endopeptidase activity toward the G5-H6 peptide bond”; in the series with C-domain of ACE (C-ACE), “complete inhibition of hydrolysis”; with N-domain of ACE (N-ACE) [3] it was “complete inhibition of hydrolysis”.

Regarding “Ac-DAEFGHDSGFEVRHQK-NH2 [[CH3CO]-Asp-Ala-Glu-Phe-Gly^5-His-Asp- Ser-Gly- Phe^10-Glu-Val-Arg-His-Gln^15-Lys-[NH2]]”, the “Peptide bond hydrolysed by N-ACE” value in [4] (bicarbonate buffer pH 7.8, 37 °C, incubation 40 min (Aβ(1-16)), 130 min (amidated Aβ peptides), 60 min (ratAβ peptide)) is listed as “Arg13-His14”. Further, the “Bond cleaved, N-ACE (backbone positions)” value in series [4] (same digestion as products observed, N-ACE, 37 °C) is 13–14. Further, in series [5], the “Peptide bond(s) hydrolysed by C-ACE” value was “Arg13-His14, His14-Gln15, and Gln15- Lys16”.

In the case of Pyr-HWSYGLRPG-[Amide], the fragment found result in the series on N-domain of ACE [6] is “N-terminal tripeptide”.

As for “Pyr-HWSYGLRPG-[Amide] [luliberin, regulatory peptide, natural substrate of ACE]”, the “Endoproteolytic cleavage by the N-domain of ACE” value in the series on N-domain of ACE [7] is “cleaves an N-terminal tripeptide”.

On to “[CH3CO]-Asp-Ala-Glu-Phe-Arg^5-His-Asp- Ser-Gly-Tyr^10-Glu-Val-His-His-Gln^15-Lys-[NH2]”, for which the not cleaved result in the series on N-domain of ACE (N-ACE) [8] is on record as “complete inhibition of hydrolysis”.
